Measured values published in patent publication US8633204B2 (Pfizer Inc., priority 2006, dated 2014).

Key:
PI3-Kα = PI3-Kα (Mus musculus (Mouse), UniProt P42337); test: PI3-Kα Biochemical Assay (fluorescence polarization kinase assay)
Description: Compounds of the present invention were evaluated for potency against PI3-Kα using an in vitro kinase assay. PI3-Kα activity is measured in vitro by determining the level of phosphorylation of the substrate PI(4,5)P2. The formation of product PI(3,4,5)P3 is monitored by binding to the Grip1 PH domain in a ligand displacement fluorescence polarization (FP) assay, in which the TAMRA-labeled PI(3,4,5)P3 complexed with Grip1 PH domain is displaced by PI(3,4,5)P3 formed in the PI3-Kα reaction resulting in a decrease in FP signal. Mouse PI3-Kα P110 and P85 subunits were co-expressed in insect cells and co-purified to homogeneity. PI(4,5)P2 were obtained from Cayman. TAMRA-labeled PI(3,4,5)P3 were from Echelon, Grip1 PH domain from Dundee and other reagents were from Sigma.
All assays were performed in a Corning solid black 96-well half area plate using LJL Analyst (Molecular Devices) at room temperature. The assay buffer contained 50 mM HEPES, pH 7.4, 150 mM NaCl, 5 mM DTT, and 0.05% CHAPS. Dry powder PI(4,5)P2 was dissolved in 50 mM TRIS, pH 8 to make 1 mM stock solution. The PI(4,5)P2 stock solution was then diluted in the assay buffer to 60 μM, and sonicated for 30 sec before use. To the assay plate, the following reagents were added in sequence: 10 μL of 60 μM PI(4,5)P2, 5 μL of 4 nM PI3-Kα, 2 μL of compound in 25% DMSO, 3 μL of mixture containing 200 μM ATP and 33 mM MgCl2. The final volume for the reaction was 20 μL. The reaction mixture was incubated at room temperature for 35 min. The reaction was then stopped by 20 μL of 20 mM EDTA. […] The FP signal was allowed to develop for 40 min before reading on a LJL analyst at excitation 535 nm and emission 580 nm.
The percentage of inhibition was calculated based on the following equation % inhibition=[1−(FPcompound−FPmax)/(FPmin−FPmax)]×100, where FPcompound is the FP reading at a given compound concentration, FPmin is the FP signal of the PI3-Kα reaction in the absence of a compound, and FPmax is the background FP signal in the absence of PI3-Kα and a compound. The IC50 was determined by fitting the FP signal vs. compound concentration to a sigmoidal dose response equation using GraphPad Prism curve fitting program.

[1] = test system: PI3-K in BT20 cells (phosphorylation of AKT at serine 473); test: PI3-Kα Cellular Assay (AKT Ser473 phosphorylation ELISA in BT20 cells); format: cell-based, human; settings: Homo sapiens, BT-20, pAKT Ser473 ELISA, 1 hour incubation
Description: Compounds of the present invention were evaluated for potency against PI3-K using a cellular assay as follows.
Healthy growing human breast cancer cells BT20 (PI3K mutated) are used for the assay. BT20 cells are grown in 10% FBS+GLN (1:100)+PS (1:100)+1 mM Sodium Pyruvate+0.1 mM Sodium Bicarbonate+Non-Essential Amino Acids Solution (1:100) MEM medium (MEM+all). […] The cells are re-suspended in 10% FBS MEM all and are centrifuged down at 1400 rpm for 5 minutes. The cells are re-suspended in 0.5% FBS MEM all and are counted on a cell counter. The cells are seeded at 25,000 cells/well in volume of 100 μL/well in 0.5% FBS MEM all in a 96 well flat-bottom plate. The negative control wells receive only 100 μL of 0.5% FBS MEM all medium without cells. The plate is incubated overnight in a cell culture incubator with 5% CO2 at 37° C.
On day 2, testing compounds are prepared in 0.5% FBS MEM all medium and serially diluted at 1:3 for 11 test concentrations. Each concentration of the compounds is tested in duplicate. The compound solutions are added at 25 μL/well to the corresponded wells in cell plate, and 25 μL/well of the vehicle (0.5% DMSO in 0.5% FBS MEM all) is added to the negative control wells (no cells) and the positive control wells (cells without compounds). The plate is incubated for 1 hour in a cell culture incubator with 5% CO2 at 37° C. After 1 hour of incubation, the medium is removed, 100 μL/well of cell lysis buffer is added into the cell plate, and shake for 15 minutes at room temperature. […] After 1 hour, empty the contents of the wells, wash the plate 4 times with the wash buffer, and add 100 μL of TMB substrate solution (catalog #T0440, Sigma) into each well, and incubate with gentle shaking at room temperature for […]. After 15 minutes of color development, add 100 μL of stop solution (1N hydrochloric acid) to each well, and read the plate at 450 nm on ELISA plate reader.

Sequence of PI3-Kα (P42337 whole entry, the tested form may be a part): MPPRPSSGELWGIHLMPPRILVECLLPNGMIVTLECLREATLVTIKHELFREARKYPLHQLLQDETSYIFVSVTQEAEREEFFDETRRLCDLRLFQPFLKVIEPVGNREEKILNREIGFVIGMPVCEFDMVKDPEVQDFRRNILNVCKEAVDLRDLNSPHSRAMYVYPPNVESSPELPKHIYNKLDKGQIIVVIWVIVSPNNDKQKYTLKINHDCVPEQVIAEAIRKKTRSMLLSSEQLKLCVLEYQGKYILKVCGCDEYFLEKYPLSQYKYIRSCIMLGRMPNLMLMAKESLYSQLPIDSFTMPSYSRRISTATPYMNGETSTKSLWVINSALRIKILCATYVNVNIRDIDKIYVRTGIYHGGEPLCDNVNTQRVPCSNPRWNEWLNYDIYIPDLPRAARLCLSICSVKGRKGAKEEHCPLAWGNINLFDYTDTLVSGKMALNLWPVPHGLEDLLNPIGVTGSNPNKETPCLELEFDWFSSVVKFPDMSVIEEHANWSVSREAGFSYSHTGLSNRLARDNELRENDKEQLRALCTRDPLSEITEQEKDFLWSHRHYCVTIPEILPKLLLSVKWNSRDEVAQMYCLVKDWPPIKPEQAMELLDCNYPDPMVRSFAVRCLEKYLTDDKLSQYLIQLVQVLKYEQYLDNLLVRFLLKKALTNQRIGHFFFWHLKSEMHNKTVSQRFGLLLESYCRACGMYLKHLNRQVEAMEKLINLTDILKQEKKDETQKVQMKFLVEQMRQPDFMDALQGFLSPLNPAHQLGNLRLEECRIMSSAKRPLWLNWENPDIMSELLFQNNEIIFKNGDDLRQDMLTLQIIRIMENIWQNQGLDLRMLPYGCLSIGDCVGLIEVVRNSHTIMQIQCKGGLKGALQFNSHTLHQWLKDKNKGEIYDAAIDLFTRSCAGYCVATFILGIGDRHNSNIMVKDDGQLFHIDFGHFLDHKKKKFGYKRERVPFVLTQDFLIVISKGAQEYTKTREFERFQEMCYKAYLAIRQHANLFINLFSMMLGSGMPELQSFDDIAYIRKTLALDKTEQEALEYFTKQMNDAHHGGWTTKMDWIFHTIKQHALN
Sequence of PI3-Kα (P26450 whole entry partner, the tested form may be a part): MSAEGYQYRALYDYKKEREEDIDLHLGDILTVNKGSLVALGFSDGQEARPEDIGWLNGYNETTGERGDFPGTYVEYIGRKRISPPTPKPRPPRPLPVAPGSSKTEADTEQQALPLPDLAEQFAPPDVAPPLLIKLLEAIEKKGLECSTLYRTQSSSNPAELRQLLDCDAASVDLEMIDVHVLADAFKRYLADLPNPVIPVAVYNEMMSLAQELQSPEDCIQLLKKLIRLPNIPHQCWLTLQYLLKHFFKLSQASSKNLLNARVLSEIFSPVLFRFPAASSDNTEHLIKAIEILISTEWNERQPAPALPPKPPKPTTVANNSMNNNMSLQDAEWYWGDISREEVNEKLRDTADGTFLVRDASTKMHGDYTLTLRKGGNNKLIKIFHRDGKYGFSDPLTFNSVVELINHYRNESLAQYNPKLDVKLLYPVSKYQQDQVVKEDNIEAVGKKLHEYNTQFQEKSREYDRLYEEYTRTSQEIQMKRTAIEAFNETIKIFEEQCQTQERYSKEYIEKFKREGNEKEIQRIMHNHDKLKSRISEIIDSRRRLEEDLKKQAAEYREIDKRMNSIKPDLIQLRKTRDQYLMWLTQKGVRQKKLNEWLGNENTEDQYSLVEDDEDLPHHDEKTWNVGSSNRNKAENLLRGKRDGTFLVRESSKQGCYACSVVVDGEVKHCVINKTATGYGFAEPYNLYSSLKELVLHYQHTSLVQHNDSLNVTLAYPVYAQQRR

Q: With `Cc1nc(N)nc2c1cc(-c1cn[nH]c1)c(=O)n2N1CCCC1` [Compound 193, 2-Amino-4-methyl-6-(1H-pyrazol-4-yl)-8-(pyrrolidin-1-yl)pyrido[2,3-d]pyrimidin-7(8H)-one] as the molecule, how does the IC50 (PI3-Kα) read?
A: 28 nM

Q: With `COc1ccc(-c2cc3c(C)nc(N)nc3n(N3CCCC3)c2=O)cn1` [Compound 195, 2-amino-6-(6-methoxypyridin-3-yl)-4-methyl-8-(pyrrolidin-1-yl)pyrido[2,3-d]pyrimidin-7(8H)-one] as the molecule, how does the IC50 (PI3-Kα) read?
A: 23 nM

Q: `Cc1nc(N)nc2c1cc(-c1cn[nH]c1)c(=O)n2C1CC1` [Compound 211, 2-amino-8-cyclopropyl-4-methyl-6-(1H-pyrazol-4-yl)pyrido[2,3-d]pyrimidin-7(8H)-one] was tested. Which IC50 (PI3-Kα) did it give?
A: 78 nM

Q: Which IC50 (PI3-Kα) does the source give for `COc1ccc(-c2cc3c(C)nc(N)nc3n(C3CC3)c2=O)cn1` [Compound 212, 2-amino-8-cyclopropyl-6-(6-methoxypyridin-3-yl)-4-methylpyrido[2,3-d]pyrimidin-7(8H)-one] here?
A: 56 nM

Q: How did the IC50 [1] turn out when `Cc1nc(N)nc2c1cc(-c1cn[nH]c1)c(=O)n2CC1CCCO1` (stereo not shown) [Compound 223, 2-amino-4-methyl-6-(1H-pyrazol-4-yl)-8-((tetrahydrofuran-2-yl)methyl)pyrido[2,3-d]pyrimidin-7(8H)-one] was run?
A: 249 nM

Q: How did the IC50 [1] turn out when `Cc1nc(N)nc2c1cc(-c1cnn(C)c1)c(=O)n2C1CCCC1` [Compound 235, 2-Amino-8-cyclopentyl-4-methyl-6-(1-methyl-1H-pyrazol-yl)-8H-pyrido[2,3-d]pyrimidin-7-one] was run?
A: 623 nM

Q: Which IC50 [1] does the source give for `CNc1nc(C)c2cc(-c3ccc(OC)nc3)c(=O)n(CCN)c2n1` [Compound 239, 8-(2-Amino-ethyl)-6-(6-methoxy-pyridin-3-yl)-4-methyl-2-methylamino-8H-pyrido[2,3-d]pyrimidin-7-one] here?
A: 1270 nM

Q: `COc1ccc(-c2cc3c(C)nc(N)nc3n(CC(C)C)c2=O)cn1` [Compound 241, 2-Amino-8-isobutyl-6-(6-methoxy-pyridin-3-yl)-4-methyl-8H-pyrido[2,3-d]pyrimidin-7-one] was tested. Which IC50 [1] did it give?
A: 79.3 nM

Q: With `COc1ncc(-c2cc3c(C)nc(N)nc3n(C3CCCC3)c2=O)cc1F` [Compound 254, 2-amino-8-cyclopentyl-6-(5-fluoro-6-methoxypyridin-3-yl)-4-methylpyrido[23-d]pyrimidin-7(8H)-one] as the molecule, how does the IC50 [1] read?
A: 7.92 nM

Q: `Cc1nc(N)nc2c1cc(-c1ccc3c(c1)OCCO3)c(=O)n2[C@H]1CC[C@H](O)CC1` [Compound 261, 2-amino-6-(2,3-dihydro-1,4-benzodioxin-6-yl)-8-(trans-4-hydroxycylohexyl)-4-methylpyrido[23-d]pyrimidin-7(8H)-one] was tested. Which IC50 [1] did it give?
A: 34.8 nM

Q: For `COc1ncc(-c2cc3c(C)nc(N)nc3n(C3CCOCC3)c2=O)cc1F` [Compound 265, 2-amino-6-(5-fluoro-6-methoxypyridin-3-yl)-4-methyl-8-(tetrahydro-2H-pyran-4-yl)pyrido[2,3-d]pyrimidin-7(8H)-one], which IC50 (PI3-Kα) is on record?
A: 1.43 nM

Q: With `COc1ncc(-c2cc3c(C)nc(N)nc3n([C@H]3CC[C@@H](O)CC3)c2=O)cn1` [Compound 272, 2-amino-8-(cis-4-hydroxycyclohexyl)-6-(2-methoxypyrimidin-5-yl)-4-methylpyrido[2,3-d]pyrimidin-7(8H)-one] as the molecule, how does the IC50 [1] read?
A: 43.7 nM

Q: `COc1ncc(-c2cc3c(C)nc(N)nc3n([C@H]3CC[C@H](O)CC3)c2=O)cn1` [Compound 273, 2-amino-8-(trans-4-hydroxycyclohexyl)-6-(2-methoxypyrimidin-5-yl)-4-methylpyrido[2,3-d]pyrimidin-7(8H)-one] was tested. Which IC50 [1] did it give?
A: 25.1 nM

Q: How did the IC50 [1] turn out when `CNc1nc(C)c2cc(-c3ccc(OC)nc3)c(=O)n([C@H]3CC[C@H](O)CC3)c2n1` [Compound 274, 8-(trans-4-hydroxycyclohexyl)-6-(6-methoxypyridin-3-yl)-4-methyl-2-(methylamino)pyrido[2,3-d]pyrimidin-7(8H)-one] was run?
A: 7.81 nM

Q: For `CCn1nccc1NC(=O)c1cc2c(C)nc(N)nc2n(C(C)C)c1=O` [Compound 280, 2-amino-N-(1-ethyl-1H-pyrazol-5-yl)-8-isopropyl-4-methyl-7-oxo-7,8-dihydropyrido[2,3-d]pyrimidine-6-carboxamide], which IC50 (PI3-Kα) is on record?
A: 3.9 nM

Q: How did the IC50 [1] turn out when `CNc1nc(C)c2cc(C(=O)Nc3ccccn3)c(=O)n(C3CCCC3)c2n1` [Compound 282, 8-cyclopentyl-4-methyl-2-(methylamino)-7-oxo-N-pyridin-2-yl-7,8-dihydropyrido[2,3-d]pyrimidine-6-carboxamide] was run?
A: 265 nM

Q: `COc1ccc(-c2cc3c(C)nc(N)nc3n([C@H]3CC[C@@H](OCCO)CC3)c2=O)cn1` [Compound 285, 2-Amino-8-(cis-4-(2-hydroxyethoxy)cyclohexyl)-6-(6-methoxypyridin-3-yl)-4-methylpyrido[2,3-d]pyrimidin-7(8H)-one] was tested. Which IC50 [1] did it give?
A: 18 nM

Q: For `COc1ccc(-c2cc3c(C)nc(N)nc3n([C@H]3CC[C@H](OCCO)CC3)c2=O)cn1` [Compound 286, 2-amino-8-[trans-4-(2-hydroxyethoxy)cyclohexyl]-6-(6-methoxypyridin-3-yl)-4-methylpyrido[2,3-d]pyrimidin-7(8H)-one], which IC50 [1] is on record?
A: 13.1 nM

Q: Which IC50 [1] does the source give for `Cc1nc(N)nc2c1cc(-c1cnc3ccccc3c1)c(=O)n2[C@H]1CC[C@H](OCCO)CC1` [Compound 289, 2-amino-8-(trans-4-(2-hydroxyethoxy)cyclohexyl]-4-methyl-6-quinolin-3-ylpyrido[2,3-d]pyrimidin-7(8H)-one] here?
A: 29.5 nM

Q: For `Cc1nc(N)nc2c1cc(-c1cnc3ccccc3c1)c(=O)n2[C@H]1CC[C@@H](OCCO)CC1` [Compound 295, 2-amino-8-[cis-4-(2-hydroxyethoxy)cyclohexyl]-4-methyl-6-quinolin-3-ylpyrido[2,3-d]pyrimidin-7(8H)-one], which IC50 [1] is on record?
A: 96.2 nM

Q: With `Cc1nc(N)nc2c1cc(-c1ccn[nH]1)c(=O)n2[C@H]1CC[C@H](OCCO)CC1` [Compound 301, 2-amino-8-[trans-4-(2-hydroxyethoxy)cyclohexyl]-4-methyl-6-(1H-pyrazol-3-yl)pyrido[2,3-d]pyrimidin-7(8H)-one] as the molecule, how does the IC50 [1] read?
A: 137 nM

Q: For `COc1ccc(-c2cc3c(C)nc(N)nc3n([C@H]3CC[C@@H](OCC(N)=O)CC3)c2=O)cn1` [Compound 303], which IC50 [1] is on record?
A: 20.5 nM

Q: `COc1ncc(-c2cc3c(C)nc(N)nc3n([C@H]3CC[C@@H](OCC(N)=O)CC3)c2=O)cn1` [Compound 307, 2-({cis-4-(2-amino-6-(2-methoxypyrimidin-5-yl)-4-methyl-7-oxopyrido[2,3-d]pyrimidin-8(7H)-yl]cyclohexyl}oxy)acetamide] was tested. Which IC50 [1] did it give?
A: 82.9 nM

Q: For `COc1ccc(-c2cc3c(C)nc(N)nc3n([C@H]3CC[C@H](OCC(N)=O)CC3)c2=O)cn1` [Compound 309, 2-({trans-4-[2-amino-6-(6-methoxypyridin-3-yl)-4-methyl-7-oxopyrido[2,3-d]pyrimidin-8(7H)-yl]cyclohexyl}oxy)acetamide], which IC50 [1] is on record?
A: 19.3 nM

Q: How did the IC50 [1] turn out when `COc1ncc(-c2cc3c(C)nc(N)nc3n([C@H]3CC[C@H](OCC(N)=O)CC3)c2=O)cn1` [Compound 311, 2-({trans-4-[2-amino-6-(2-methoxypyrimidin-5-yl)-4-methyl-7-oxopyrido[2,3-d]pyrimidin-8(7H)-yl]cyclohexyl}oxy)acetamide] was run?
A: 51.9 nM
